Measurements as given in patent US20170305882A1, “BENZYL SUBSTITUTED INDAZOLES AS BUB1 KINASE INHIBITORS” (Bayer Pharma Aktiengesellschaft, priority 2014, published 2017).

Experiments:
[1] = tested on: pre-induced phospho-histone 2A (kinase activity of Bub1); experiment: H2A Abrogation-Assay (cell-based mechanistic assay, pre-treatment with Nocodazole); settings: Nocodazole 16 h, then test compound 1 h; read-out: Biological Assay 4:2: H2A Abrogation IC50
Excerpt: Biological Assay 4.2: Abrogation-Assay
This assay measures the inhibition of histone 2A phosphorylation, which was induced by pre-treatment of the cells with Nocodazole, by a Bub1 kinase inhibitor.

[2] = target: T1, (recombinant) catalytic domain of human Bub1 (amino acids 704-1085) (Homo sapiens, UniProt O43683); experiment: Equilibrium probe competition assay (TR-FRET kinase binding assay); settings: read-out: IC50 (Assay 5, probe competition)
T1 construct: catalytic domain of human Bub1 (amino acids 704-1085); 6xHis (N); made in house; host or cells: Hi5 insect cells
Excerpt: Equilibrium Probe Competition Assay:
Bub1 binding affinity of compounds described in the present invention were quantified using a time-resolved fluorescence energy transfer (TR-FRET) kinase binding assay which measures displacement of the synthetic fluorescent probe 5-[({2-[2-({2-[1-(4-ethoxy-2,6-difluorobenzyl)-1H-indazol-3-yl]-4-(pyridin-4-ylamino)pyrimidin-5-yl}oxy)ethoxy]ethyl}carbamothioyl)amino]-2-(6-hydroxy-3-oxo-3H-xanthen-9-yl)benzoic acid (5-5-1) by the (recombinant) catalytic domain of human Bub1 (amino acids 704-1085). The enzyme was expressed in Hi5 insect cells with N-terminal 6×His/AviTag@ seqences, purified by affinity-(Ni-NTA) and size exclusion chromatography and site-specific biotinylated ex-vivo using a commercially available kit (Avidity).
In a typical assay 11 different concentrations of each compound (0.1 nM, 0.33 nM, 1.1 nM, 3.8 nM, 13 nM, 44 nM, ˜0.15 μM, ˜0.51 μM, ˜1.7 μM, 5.9 μM and 20 μM) were tested in duplicate within the same microtiter plate. To this end, 100-fold concentrated compound solutions (in DMSO) were made by serial dilution (1:3.4) of freshly prepared 2 mM stocks in a clear low volume 384-well source microtiter plate (Greiner Bio-One, Frickenhausen, Germany), from which 50 nl of compounds were transferred into a black low volume test microtiter plate from the same supplier. Subsequently 2 μL of a solution containing biotinylated Bub1 (the final concentration of Bub1 was adjusted depending on the activity of the enzyme lot in order to be within the linear dynamic range of the assay: typically ˜200 pM were used) and 1 nM Streptavidin Terbium Cryptate (Cisbio, No. 610SATLB) in aqueous assay buffer [50 mM Tris/HCl pH 7.5, 200 mM potassium chloride (KCl), 1.0 mM dithiothreitol (DTT), 0.1 mM sodium ortho-vanadate, 1% (v/v) glycerol, 0.01% (w/v) bovine serum albumine (BSA), 0.005% (v/v) Triton X-100 (Sigma), were added to the compounds in the test plate and the mixture was incubated for 15 min at 22′C to allow pre-equilibration of the putative enzyme-inhibitor complexes before the start of the probe competition reaction, which was initiated by the addition of 3 μL 1.67-fold concentrated solution (in assay buffer) of 5-5-1 (final concentration: 1.5 nM). The resulting mixture (5 μL final volume) was Incubated at 220 during 0, 15, 30, 60, 120, 240 and 1440 min. After each time point the resonance energy transfer from the Streptavidin Tb cryptate to the 3′,6′-dihydroxy-3H-spiro[2-benzofuran-1,9′-xanthen]-3-one moiety of 5-5-1 was measured in order to quantify the amount of fluorescent probe displaced by the test compounds. To this end, the fluorescence emissions at 520 nm and 490 nm after excitation at 330-350 nm were measured in a Pherastar FS TR-FRET plate reader, (BMG Lab technologies, Offenburg, Germany) and the ratio of the emissions (520 nm/490 nm) was taken as Indicator for the amount of Bub1/5-5-1 equilibrium complexes. The data were normalized using two sets of control wells for high-(=enzyme reaction without inhibitor=0%=Minimum inhibition) and low-(=all assay components without enzyme=100%=Maximum inhibition) Bub1 activity. IC50 values were calculated by fitting the normalized inhibition data to a 4-parameter logistic equation (Minimum, Maximum, IC50, Hill; Y=Max+(Min−Max)/(1+(X/IC50)Hill)).

[3] = tested on: HeLa human cervical tumor cells; experiment: Proliferation assay (HeLa cell line); type: cell-based; settings: 96 h, 4 days incubation, crystal violet, read-out: Biological Assay 2: Proliferation assay (HeLa cell line) median IC50
Excerpt: Human tumour cells were originally obtained from the American Type Culture Collection (ATCC), the Deutsche Sammlung von Mikroorganismen und Zellkulturen (DSMZ, German Collection of Microorganisms and Cell Cultures), or Epo GmbH Berlin.

[4] = tested on: HeLa human cervical tumor cells; experiment: Proliferation Assay (HeLa + Paclitaxel); type: cell-based; settings: 3 nM paclitaxel, test substance 92 hours; read-out: Biological Assay 3: Proliferation Assay (HeLa + Paclitaxel) IC50
Excerpt: Proliferation Assay (HeLa+Paclitaxel):

[5] = tested on: histone 2A phosphorylation (kinase activity of Bub1); experiment: H2A Formation-Assay (cell-based mechanistic assay, co-treatment with Nocodazole); settings: 16 h, read-out: Biological Assay 4.1: H2A Formation IC50
[6] = target: T1, (recombinant) catalytic domain of human Bub1 (amino acids 704-1085); experiment: Bub1 kinase assay (TR-FRET); type: biochemical; settings: ATP 10 μM, 60 min reaction, pH 7.5; read-out: Biological Assay 1: Bub1 kinase assay median IC50

| SMILES | IC50 [1] | IC50 ([2]; Time 15 min) | IC50 ([2]; Time 30 min) | IC50 ([2]; Time 60 min) | IC50 ([2]; Time 90 min) | IC50 ([2]; Time 120 min) | IC50 ([2]; Time 240 min) | IC50 ([2]; Time 1440 min) | IC50 [3] | IC50 [4] | IC50 [5] | IC50 [6] |
| --- | --- | --- | --- | --- | --- | --- | --- | --- | --- | --- | --- | --- |
| CCOc1cc(F)c(Cn2nc(-c3ncc(OCCCO)c(Nc4ccncc4Cl)n3)c3ccccc32)c(F)c1 [Example 2-1-6, 3-{[4-[(3-chloropyridin-4-yl)amino]-2-[1-(4-ethoxy-2,6-difluorobenzyl)-1H-indazol-3-yl]pyrimidin-5-yl}oxy)propan-1-ol] | 58 nM | 1.7 nM | 0.87 nM | 0.85 nM | 1.2 nM | 0.38 nM | 0.31 nM | 0.2 nM | 5900 nM | 120 nM | 45 nM | 8.3 nM |
| CCOc1cc(F)c(Cn2nc(-c3ncc(OCCCO)c(Nc4ccnc(NC(C)=O)c4)n3)c3ccccc32)c(F)c1 [Example 2-1-5, N-[4-({2-[1-(4-ethoxy-2,6-difluorobenzyl)-1H-indazol-3-yl]-5-(3-hydroxypropoxy)pyrimidin-4-yl}amino)pyridin-2-yl]acetamide] | 4.4 nM | 0.59 nM | 0.49 nM | 0.32 nM | 0.26 nM | 0.2 nM | 0.16 nM | 0.098 nM | > 10000 nM | 100 nM | 28 nM | 3.5 nM |
| OCCCOc1cnc(-c2nn(Cc3c(F)cc(OCC4CC4)cc3F)c3ccccc23)nc1Nc1ccncc1Cl [Example 2-1-13, 3-[(4-[(3-chloropyridin-4-yl)amino]-2-{1-[4-(cyclopropylmethoxy)-2,6-difluorobenzyl]-1H-indazol-3-yl}pyrimidin-5-yl)oxy]propan-1-ol] | 64 nM | – | – | – | – | – | – | – | 3900 nM | 180 nM | 360 nM | 11 nM |
| CCOc1cc(F)c(Cn2nc(-c3ncc(OCCCO)c(Nc4cc(C)nc(C)n4)n3)c3ccccc32)c(F)c1 [Example 2-1-14, 3-({4-[(2,6-Dimethylpyrimidin-4-yl)amino]-2-[1-(4-ethoxy-2,6-difluorobenzyl)-1H-indazol-3-yl]pyrimidin-5-yl}oxy)propan-1-ol] | 0.92 nM | – | – | – | – | – | – | – | > 10000 nM | 39 nM | 8.7 nM | > 20000 nM |
| Cc1nccc(Nc2nc(-c3nn(Cc4c(F)cc(OCC5CC5)cc4F)c4ccccc34)ncc2OCCCO)n1 [Example 2-1-24, 3-[(2-{1-[4-(cyclopropylmethoxy)-2,6-difluorobenzyl]-1H-indazol-3-yl}-4-[(2-methylpyrimidin-4-yl)amino]pyrimidin-5-yl)oxy]propan-1-ol] | 0.85 nM | – | – | – | – | – | – | – | 9940 nM | 330 nM | 2.1 nM | 23 nM |
